Measured values published in patent publication EP1333824B1, “TREATMENT OF SEXUAL DYSFUNCTION WITH BOMBESIN RECEPTOR ANTAGONISTS” (Warner-Lambert Company LLC, priority 2000, dated 2002).

Target: T1, human GRP receptor (BB2) (Homo sapiens, UniProt P30550)
T1 construct: expressed in transfected cells
Assay: BB2 binding assay ([125I][Tyr4]bombesin, CHO-K1 cell membranes)
Description: In the following experiments, measurement of BB1 and BB2 binding was as follows. […] The final pellet was resuspended in assay buffer to a final cell concentration of 1.5 × 10^5/mL. […] Nonspecific binding was defined by 1µM bombesin. […] Radioactivity bound was determined using a gamma counter.
All competition data was analysed using nonlinear regression utilizing iterative curve-plotting procedures in Prism® (GraphPad Software Inc., San Diego, USA).

[1] = Table 7, N-terminal sulfonamide derivatives
[2] = Table 5, N-terminal urethane derivatives

T1 sequence (P30550 whole entry): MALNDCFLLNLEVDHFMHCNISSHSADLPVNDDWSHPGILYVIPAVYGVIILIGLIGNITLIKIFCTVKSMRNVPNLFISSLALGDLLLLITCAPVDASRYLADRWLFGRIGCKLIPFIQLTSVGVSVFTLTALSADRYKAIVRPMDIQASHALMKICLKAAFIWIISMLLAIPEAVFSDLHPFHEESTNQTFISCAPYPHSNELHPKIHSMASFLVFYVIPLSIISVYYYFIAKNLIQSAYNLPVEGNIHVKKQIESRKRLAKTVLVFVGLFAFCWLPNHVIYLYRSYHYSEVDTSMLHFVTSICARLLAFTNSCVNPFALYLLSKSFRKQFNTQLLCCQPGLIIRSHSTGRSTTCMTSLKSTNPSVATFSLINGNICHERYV

| IC50 [1] | SMILES | other results |
| --- | --- | --- |
| – | C[C@@](Cc1c[nH]c2ccccc12)(NS(=O)(=O)c1c(Cl)cc(Cl)cc1Cl)C(=O)NCC1(c2ccccn2)CCCCC1 [Example 148, (S)-3-(1H-Indol-3-yl)-2-methyl-N-(1-pyridin-2-yl-cyclohexylmethyl)-2-(2,4,6-trichloro-benzenesulfonylamino)-propionamide] | BB2 IC50 [1]: Ia |
| > 10 µM | C[C@@](Cc1c[nH]c2ccccc12)(NS(=O)(=O)c1cccc2cccc([N+](=O)[O-])c12)C(=O)NCC1(c2ccccn2)CCCCC1 [Example 146, (S)-3-(1H-Indol-3-yl)-2-methyl-2-(8-nitro-naphthalene-1-sulfonylamino)-N-(1-pyridin-2-yl-cyclohexylmethyl)-propionamide] | – |
| – | C[C@@](Cc1c[nH]c2ccccc12)(NC(=O)OCc1ccc(Cl)cc1Cl)C(=O)NCC1(c2ccccn2)CCCCC1 [Example 104, {(S)-2-(1H-Indol-3-yl)-1-methyl-1-[(1-pyridin-2-yl-cyclohexylmethyl)-carbamoyl]-ethyl}-carbamic acid 2,4-dichloro-benzyl ester] | IC50 [2]: > 10 µM |
| > 10 µM | C[C@@](Cc1c[nH]c2ccccc12)(NS(=O)(=O)c1ccc(-c2ccccn2)s1)C(=O)NCC1(c2ccccn2)CCCCC1 [Example 160, (S)-3-(1H-Indol-3-yl)-2-methyl-N-(1-pyridin-2-yl-cyclohexylmethyl)-2-(5-pyridin-2-yl-thiophene-2-sulfonylamino)-propionamide] | – |
| > 10 µM | C[C@@](Cc1c[nH]c2ccccc12)(NS(=O)(=O)c1cccc2nsnc12)C(=O)NCC1(c2ccccn2)CCCCC1 [Example 137, (S)-2-(Benzo[1,2,5]thiadiazole-4-sulfonylamino)-3-(1H-indol-3-yl)-2-methyl-N-(1-pyridin-2-yl-cyclohexylmethyl)-propionamide] | – |
| – | C[C@@](Cc1c[nH]c2ccccc12)(NC(=O)OCc1ccc2ncccc2c1)C(=O)NCC1(c2ccccn2)CCCCC1 [Example 110, {(S)-2-(1H-Indol-3-yl)-1-methyl-1-[(1-pyridin-2-yl-cyclohexylmethyl)-carbamoyl]-ethyl}-carbamic acid quinolin-6-ylmethyl ester] | IC50 [2]: > 10 µM |
| > 10 µM | COc1ccc(S(=O)(=O)N[C@@](C)(Cc2c[nH]c3ccccc23)C(=O)NCC2(c3ccccn3)CCCCC2)cc1OC [Example 132, (S)-2-(3,4-Dimethoxy-benzenesulfonylamino)-3-(1H-indol-3-yl)-2-methyl-N-(1-pyridin-2-yl-cyclohexylmethyl)-propionamide] | – |
| > 10 µM | C[C@@](Cc1c[nH]c2ccccc12)(NS(=O)(=O)c1ccc(Cl)c(Cl)c1)C(=O)NCC1(c2ccccn2)CCCCC1 [Example 125, (S)-2-(3,4-Dichloro-benzenesulfonylamino)-3-(1H-indol-3-yl)-2-methyl-N-(1-pyridin-2-yl-cyclohexylmethyl)-propionamide] | – |
| > 10 µM | C[C@@](Cc1c[nH]c2ccccc12)(NS(=O)(=O)c1ccccc1C#N)C(=O)NCC1(c2ccccn2)CCCCC1 [Example 134, (S)-2-(2-Cyano-benzenesulfonylamino)-3-(1H-indol-3-yl)-2-methyl-N-(1-pyridin-2-yl-cyclohexylmethyl)-propionamide] | – |
| > 10 µM | COc1cc(C)ccc1S(=O)(=O)N[C@@](C)(Cc1c[nH]c2ccccc12)C(=O)NCC1(c2ccccn2)CCCCC1 [Example 159, (S)-3-(1H-Indol-3-yl)-2-(2-methoxy-4-methyl-benzenesulfonylamino)-2-methyl-N-(1-pyridin-2-yl-cyclohexylmethyl)-propionamide] | – |
| > 10 µM | CC(C)(C)c1ccc(S(=O)(=O)N[C@@](C)(Cc2c[nH]c3ccccc23)C(=O)NCC2(c3ccccn3)CCCCC2)cc1 [Example 164, (S)-2-(4-tert-Butyl-benzenesulfonylamino)-3-(1H-indol-3-yl)-2-methyl-N-(1-pyridin-2-yl-cyclohexylmethyl)-propionamide] | – |
| > 10 µM | Cc1nn(C)c(Cl)c1S(=O)(=O)N[C@@](C)(Cc1c[nH]c2ccccc12)C(=O)NCC1(c2ccccn2)CCCCC1 [Example 135, (S)-2-(5-Chloro-1,3-dimethyl-1H-pyrazole-4-sulfonylamino)-3-(1H-indol-3-yl)-2-methyl-N-(1-pyridin-2-yl-cyclohexylmethyl)-propionamide] | – |
| > 10 µM | Cc1ccc(S(=O)(=O)N[C@@](C)(Cc2c[nH]c3ccccc23)C(=O)NCC2(c3ccccn3)CCCCC2)cc1 [Example 112, (S)-3-(1H-Indol-3-yl)-2-methyl-N-(1-pyridin-2-yl-cyclohexylmethyl)-2-(toluene-4-sulfonylamino)-propionamide] | – |
| – | C[C@@](Cc1c[nH]c2ccccc12)(NC(=O)c1ccccn1)C(=O)NCC1(c2ccccn2)CCCCC1 [Example 57, Pyridine-2-carboxylic acid {(S)-2-(1H-indol-3-yl)-1-methyl-1-[(1-pyridin-2-yl-cyclohexylmethyl)-carbamoyl]-ethyl}-amide] | IC50 (Table 3, N-acyl derivatives): > 10 µM |
| > 10 µM | C[C@@](Cc1c[nH]c2ccccc12)(NS(=O)(=O)c1ccccc1F)C(=O)NCC1(c2ccccn2)CCCCC1 [Example 114, (S)-2-(2-Fluorobenzenesulfonylamino)-3-(1H-indol-3-yl)-2-methyl-N-(1-pyridin-2-yl-cyclohexylmethyl)-propionamide] | – |
| > 10 µM | C[C@@](Cc1c[nH]c2ccccc12)(NS(=O)(=O)c1ccc([N+](=O)[O-])cc1)C(=O)NCC1(c2ccccn2)CCCCC1 [Example 123, (S)-3-(1H-Indol-3-yl)-2-methyl-2-(4-nitro-benzenesulfonylamino)-N-(1-pyridin-2-yl-cyclohexylmethyl)-propionamide] | – |
| – | C[C@@](Cc1c[nH]c2ccccc12)(NS(=O)(=O)c1cccs1)C(=O)NCC1(c2ccccn2)CCCCC1 [Example 119, (S)-3-(1H-Indol-3-yl)-2-methyl-N-(1-pyridin-2-yl-cyclohexylmethyl)-2-(thiophene-2-sulfonylamino)-propionamide] | BB2 IC50 [1]: Ia |
| – | C[C@@](Cc1c[nH]c2ccccc12)(NS(=O)(=O)c1cc([N+](=O)[O-])ccc1Cl)C(=O)NCC1(c2ccccn2)CCCCC1 [Example 147, (S)-2-(2-Chloro-5-nitro-benzenesulfonylamino)-3-(1H-indol-3-yl)-2-methyl-N-(1-pyridin-2-yl-cyclohexylmethyl)-propionamide] | BB2 IC50 [1]: Ia |
| > 10 µM | COC(=O)c1ccccc1S(=O)(=O)N[C@@](C)(Cc1c[nH]c2ccccc12)C(=O)NCC1(c2ccccn2)CCCCC1 [Example 155, 2-{(S)-2-(1H-Indol-3-yl)-1-methyl-1-[(1-pyridin-2-yl-cyclohexylmethyl)-carbamoyl]-ethylsulfamoyl} -benzoic acid methyl ester] | – |
| > 10 µM | Cc1cc(S(=O)(=O)N[C@@](C)(Cc2c[nH]c3ccccc23)C(=O)NCC2(c3ccccn3)CCCCC2)c(Cl)cc1Cl [Example 165, (S)-2-(2,4-Dichloro-5-methyl-benzenesulfonylamino)-3-(1H-indol-3-yl)-2-methyl-N-(1-pyridin-2-yl-cyclohexylmethyl)-propionamide] | – |
| > 10 µM | Cc1nc(S(=O)(=O)N[C@@](C)(Cc2c[nH]c3ccccc23)C(=O)NCC2(c3ccccn3)CCCCC2)cn1C [Example 144, (S)-2-(1,2-Dimethyl-1H-imidazole-4-sulfonylamino)-3-(1H-indol-3-yl)-2-methyl-N-(1-pyridin-2-yl-cyclohexylmethyl)-propionamide] | – |
| – | C[C@@](Cc1c[nH]c2ccccc12)(NC(=O)c1ccoc1)C(=O)NCC1(c2ccccn2)CCCCC1 [Example 59, Furan-3-carboxylic acid {(S)-2-(1H-indol-3-yl)-1-methyl-1-[(1-pyridin-2-yl-cyclohexylmethyl)-carbamoyl]-ethyl}-amide] | IC50 (Table 3, N-acyl derivatives): > 10 µM |
| > 10 µM | Cc1noc(C)c1S(=O)(=O)N[C@@](C)(Cc1c[nH]c2ccccc12)C(=O)NCC1(c2ccccn2)CCCCC1 [Example 136, (S)-2-(3,5-Dimethyl-isoxazole-4-sulfonylamino)-3-(1H-indol-3-yl)-2-methyl-N-(1-pyridin-2-yl-cyclohexylmethyl)-propionamide] | – |
| > 10 µM | COC(=O)c1sccc1S(=O)(=O)N[C@@](C)(Cc1c[nH]c2ccccc12)C(=O)NCC1(c2ccccn2)CCCCC1 [Example 140, 3-{(S)-2-(1H-Indol-3-yl)-1-methyl-1-[(1-pyridin-2-yl-cyclohexylmethyl)-carbamoyl]-ethylsulfamoyl}-thiophene-2-carboxylic acid methyl ester] | – |
| > 10 µM | C[C@@](Cc1c[nH]c2ccccc12)(NS(=O)(=O)c1cnc(Cl)c(Br)c1)C(=O)NCC1(c2ccccn2)CCCCC1 [Example 161, (S)-2-(5-Bromo-6-chloro-pyridine-3-sulfonylamino)-3-(1H-indol-3-yl)-2-methyl-N-(1-pyridin-2-yl-cyclohexylmethyl)-propionamide] | – |
| > 10 µM | CCCCc1ccc(S(=O)(=O)N[C@@](C)(Cc2c[nH]c3ccccc23)C(=O)NCC2(c3ccccn3)CCCCC2)cc1 [Example 168, (S)-2-(4-Butyl-benzenesulfonylamino)-3-(1H-indol-3-yl)-2-methyl-N-(1-pyridin-2-yl-cyclohexylmethyl)-propionamide] | – |

| SMILES | IC50 [1] | other results |
| --- | --- | --- |
| C[C@@](Cc1c[nH]c2ccccc12)(NS(=O)(=O)c1ccc([N+](=O)[O-])cc1[N+](=O)[O-])C(=O)NCC1(c2ccccn2)CCCCC1 [Example 162, (S)-2-(2,4-Dinitro-benzenesulfonylamino)-3-(1H-indol-3-yl)-2-methyl-N-(1-pyridin-2-yl-cyclohexylmethyl)-propionamide] | > 10 µM | – |
| C[C@@](Cc1c[nH]c2ccccc12)(NS(=O)(=O)c1ccc(Cl)c(C(F)(F)F)c1)C(=O)NCC1(c2ccccn2)CCCCC1 [Example 166, (S)-2-(Chloro-trifluoromethyl-benzenesulfonylamino)-3-(1H-indol-3-yl)-2-methyl-N-(1-pyridin-2-yl-cyclohexylmethyl)-propionamide] | > 10 µM | – |
